Source: patent US6610877B1, “Aromatic carboxylic acid derivatives” (Hoffman-La Roche Inc., priority 1993, dated 2003)

Columns and labels:
[1] = test system: Hairless mice (HRS/J strain); assay: Repair of UV-B-caused skin damage in the hairless mouse; format: in vivo; settings: three times a week, 10 weeks, Luna staining of elastin, total surface per 20 microscopic field
Excerpt: Repair of UV-B-caused Skin Damage in the Hairless Mouse Hairless mice (HRS/J strain, Jackson Labs, aged 5-7 weeks at the beginning of the experiment) were irradiated three times a week with an arrangement of 8 Westinghouse irradiation lamps (FS40) which were placed about 20 cm above the animals. The radiation dose was controlled by a commercial phototherapeutic control device. The UV-B dose was chosen such that the dosage scarcely exceeded 0.06 J/cm^2, caused a minimal erythema, but no burning or scarring. After a total dose of about 3.5 J/cm^2 there resulted a significant elastosis which was evident from a histological report and which was confirmed by measuring the elastin using a radioimmunoassay for desmosin in the total skin. The desmosin content increased by two- to three-fold after 3.5 J/cm^2 UV-B irradiation. In order to make good the skin damage, the UV irradiation was interrupted and groups of animals were treated three times a week with different doses of compounds of formula I dissolved in acetone. These solutions were prepared freshly each week such that the dosage to be administered was present in […] of acetone and were applied topically to an area of about 10 cm^2 on the backs of the animals. A controlled group was treated only with acetone. After treatment for 10 weeks the animals were killed, skin preparations were prepared and the extent of the recovery was measured quantitatively by Luna staining of the elastin. In this experimental model the skin recovery is defined as the appearance of a normal dermis which extends from the epidermis to the layer of compressed elastin. The extent of the recovery was given by the width of this zone. The area of the zone on a standard length of the histological section was measured and the result was expressed as the total surface in mm^2 per 20 microscopic field.

| SMILES | melting point [°C] | further results |
| --- | --- | --- |
| CCCCCCC1C2=C(CC1/C=C/c1ccc(C(=O)O)cc1)C(C)(C)CC=C2 (stereo not shown) [Example 13 (second compound), (E)-4-[2-(3-Hexyl-7,7-dimethyl-indan-2-yl)vinyl]benzoic acid] | 149 to 150 | – |
| CCCCCOc1cc2c(cc1/C=C/c1ccc(C(=O)O)cc1)C(C)(C)CCC2(C)C [Example 8, (E)-4-[2-(5,5,8,8-Tetramethyl-3-pentoxy-5,6,7,8-tetrahydro-naphthalen-2-yl)vinyl]benzoic acid] | 148 to 149 | – |
| CCc1cc2c(cc1/C=C/c1ccc(C(=O)O)cc1)C(C)(C)CCC2(C)C [Compound D, p-[(E)-2-(3-Ethyl-5,6,7,8-tetrahydro-5,5,8,8-tetramethyl-2-naphthyl)vinyl]benzoic Acid] | – | Recovery Zone ([1]; 0.5 μg topically in acetone): 15.5 ± 4.9 mm^2 • 10^−3; Recovery Zone ([1]; 2 μg topically in acetone): 19.1 ± 4.9 mm^2 • 10^−3; Recovery Zone ([1]; 10 μg topically in acetone): 46.5 ± 6.9 mm^2 • 10^−3 |
| CCCCCOc1cc2c(cc1/C=C/C=C/C(C)=C/C(=O)O)C(C)(C)CCC2(C)C [Example 10 (2E isomer), (2E,4E,6E)-3-methyl-7-(5,5,8,8-tetramethyl-3-pentoxy-5,6,7,8-tetrahydro-naphthalen-2-yl)-hepta-2,4,6-trienoic acid] | 162 to 163 | – |
| CCCCCc1cc2c(cc1/C=C/C=C/C(C)=C/C(=O)O)C(C)(C)CCC2(C)C [Example 5, (2E,4E,6E)-7-(3-Pentyl-5,5,8,8-tetramethyl-5,6,7,8-tetrahydro-naphthalen-2-yl)-3-methyl-hepta-2,4,6-trienoic acid] | 164 to 166 | – |
| CCCCc1cc2c(cc1/C=C/c1ccc(C(=O)O)cc1)C(C)(C)CCC2(C)C [Compound B, 4-[(E)-2-(3-Butyl-5,5,8,8-tetramethyl-5,6,7,8-tetrahydro-naphth-2-yl)vinyl]benzoic Acid] | – | Recovery Zone ([1]; 0.5 μg topically in acetone): 15.6 ± 2.74 mm^2 • 10^−3; Recovery Zone ([1]; 2 μg topically in acetone): 20.5 ± 7.17 mm^2 • 10^−3 |
| CCCCCCCCc1cc2c(cc1/C=C/c1ccc(C(=O)O)cc1)CCC(C)(C)CC2 [Example 11, (E)-4-[2-(7,7-dimethyl-3-octyl-6,7,8,9-tetrahydro-5H-benzocyclohepten-2-yl)vinyl]benzoic acid] | 179.5 to 180.5 | – |
| CCCCCCCCc1cc2c(cc1/C=C/c1ccc(C(=O)O)cc1)C(C)(C)CCC2(C)C [Compound E, p-[(E)-2-(3-Octyl-5,6,7,8-tetrahydro-5,5,8,8-tetramethyl-2-naphthyl)vinyl]benzoic Acid] | – | Recovery Zone ([1]; 0.5 μg topically in acetone): 7.48 ± 1.7 mm^2 • 10^−3; Recovery Zone ([1]; 2 μg topically in acetone): 4.70 ± 2.0 mm^2 • 10^−3; Recovery Zone ([1]; 10 μg topically in acetone): 22.2 ± 8.3 mm^2 • 10^−3 |
| CCCCCc1cc2c(cc1/C=C/C=C/C(C)=C\C(=O)O)C(C)(C)CCC2(C)C [Example 6, (2Z,4E,6E)-7-(3-Pentyl-5,5,8,8-tetramethyl-5,6,7,8-tetrahydro-naphthalen-2-yl)-3-methyl-hepta-2,4,6-trienoic acid] | 170 to 174 | – |
| CCCCCCCCc1cc2c(cc1/C=C/c1ccc(C(=O)O)cc1)CCC(C)(C)CC2C (racemic) [Example 12, Rac-(E)-4-[2-(5,7,7-trimethyl-3-octyl-6,7,8,9-tetrahydro-5H-benzocyclohepten-2-yl)vinyl]benzoic acid] | 182 to 183 | – |
| CCCCCc1cc2c(cc1C#C/C=C/C(C)=C/C(=O)O)C(C)(C)CCC2(C)C [Example 17 (2E,4E), (2E,4E)-3-methyl-7-(5,5,8,8-tetramethyl-3-pentyl-5,6,7,8-tetrahydro-naphthalen-2-yl)-hepta-2,4-dien-6-ynoic acid] | 155 to 156 | – |
| CCCCOc1cc2c(cc1/C=C/C=C/C(C)=C/C(=O)O)[C@]1(C)CCC[C@@]2(C)[C@@H]1O (racemic) [Example 19, (2E,4E,6E)-(5RS,9SR,10RS)-7-(3-butoxy-10-hydroxy-5,9-dimethyl-6,7,8,9-tetrahydro-5,9-methano-5H-benzocyclohepten-2-yl)-3-methyl-hepta-2,4,6-trienoic acid] | 176 to 178 | – |
| CCCCCCc1cc2c(cc1/C=C/C=C/C(C)=C/C(=O)O)C(C)(C)CCC2(C)C [Compound C, (all E)-7-(3-Hexyl-5,5,8,8-tetramethyl-5,6,7,8-tetrahydro-naphthalen-2-yl)-3-methyl-hepta-2,4,6-trienoic Acid] | – | Recovery Zone ([1]; 2 μg topically in acetone): 32.8 ± 6.72 mm^2 • 10^−3; Recovery Zone ([1]; 10 μg topically in acetone): 59.5 ± 6.71 mm^2 • 10^−3 |

Continued, in another order:

| melting point [°C] | SMILES | further results |
| --- | --- | --- |
| 178 to 180 | C/C=C/COc1cc2c(cc1/C=C/c1ccc(C(=O)O)cc1)C(C)(C)CCC2(C)C [Example 22 (but-2-enyloxy), 4-[(E)-2-((E)-3-but-2-enyloxy-5,5,8,8-tetramethyl-5,6,7,8-tetrahydro-naphthalen-2-yl)-vinyl]-benzoic acid] | – |
| 89 to 90 | CCCCCCCOc1cc2c(cc1/C=C/c1ccc(C(=O)O)cc1)[C@]1(C)CCC[C@@]2(C)[C@@H]1O (racemic) [Example 14, (E)-4-[2-[(5RS,9SR,10RS)-3-heptyloxy-10-hydroxy-5,9-dimethyl-6,7,8,9-tetrahydro-5,9-methano-5H-benzocyclohepten-2-yl]vinyl]benzoic acid] | – |
| 208 to 209 | CCC#CCOc1cc2c(cc1/C=C/C=C/C(C)=C/C(=O)O)C(C)(C)CCC2(C)C [Example 21, (2E,4E,6E)-3-methyl-7-(3-pent-2-ynyloxy-5,5,8,8-tetramethyl-5,6,7,8-tetrahydro-naphthalen-2-yl)-hepta-2,4,6-trienoic acid] | – |
| 184 to 186 | CCCCc1cc2c(cc1/C=C/c1ccc(C(=O)O)cc1)CCCCC2(C)C [Example 13, (E)-4-[2-(3-Butyl-5,5-dimethyl-6,7,8,9-tetrahydro-5H-benzocyclohepten-2-yl)vinyl]benzoic acid] | – |
| 134 to 136 | CCCCCCc1cc2c(cc1/C=C/c1ccc(C(=O)O)cc1)C(C)(C)CCC2(C)C [Compound A, p-[(E)-2-(3-Hexyl-5,6,7,8-tetrahydro-5,5,8,8-tetramethyl-2-naphthyl)vinyl]benzoic Acid] | Recovery Zone ([1]; 0.05 μg topically in acetone): 9.8 ± 2.8 mm^2 • 10^−3; Recovery Zone ([1]; 2 μg topically in acetone): 27.2 ± 2.6 mm^2 • 10^−3; Recovery Zone ([1]; 10 μg topically in acetone): 35.9 ± 7.5 mm^2 • 10^−3 |
| 193 to 194 | C=CCOc1cc2c(cc1/C=C/C=C/C(C)=C/C(=O)O)C(C)(C)CCC2(C)C [Example 23 (allyloxy), (2E,4E,6E)-7-(3-allyloxy-5,5,8,8-tetramethyl-5,6,7,8-tetrahydro-naphthalen-2-yl)-3-methyl-hepta-2,4,6-trienoic acid] | – |
| 118 to 119 | CCCCCC(=O)c1cc2c(cc1/C=C/c1ccc(C(=O)O)cc1)C(C)(C)CCC2(C)C [Example 16, (E)-4-[2-(3-hexanoyl-5,5,8,8-tetramethyl-5,6,7,8-tetrahydro-naphthalen-2-yl)vinyl]benzoic acid] | – |
| 133 to 134 | CCCCCCc1cc2c(cc1/C=C/c1ccc(C(=O)O)cc1)CCCCC2(C)C [Example 13 (third compound), (E)-4-[2-(3-hexyl-5,5-dimethyl-6,7,8,9-tetrahydro-5H-benzocyclohepten-2-yl)vinyl]benzoic acid] | – |
| 81 to 83 | CCCCc1cc2c(cc1/C=C/c1ccc(C(=O)O)cc1)C(C)(C)CCCC2 [Example 13 (fourth compound), (E)-4-[2-(3-butyl-9,9-dimethyl-6,7,8,9-tetrahydro-5H-benzocyclohepten-2-yl)vinyl]benzoic acid] | – |
| 191 to 192 | C=CCOc1cc2c(cc1/C=C/c1ccc(C(=O)O)cc1)C(C)(C)CCC2(C)C [Example 22 (allyloxy), (E)-4-[2-(3-allyloxy-5,5,8,8-tetramethyl-5,6,7,8-tetrahydro-naphthalen-2-yl)-vinyl]-benzoic acid] | – |
| 144 to 145 | CCC#CCOc1cc2c(cc1/C=C/c1ccc(C(=O)O)cc1)C(C)(C)CCC2(C)C [Example 20, (E)-4-[2-(3-pent-2-ynyloxy-5,5,8,8-tetramethyl-5,6,7,8-tetrahydro-naphthalen-2-yl)-vinyl]-benzoic acid] | – |
| 173 to 174 | CCCCCc1cc2c(cc1/C=C/c1ccc(C(=O)O)cc1)C(C)(C)CCC2(C)C [Example 2, (E)-4-[2-(3-Pentyl-5,5,8,8-tetramethyl-5,6,7,8-tetrahydro-naphthalen-2-yl)vinyl]benzoic acid] | – |
